system: Gryllus bimaculatus; assay: Induction of paralysis in Gryllus bimaculatus assessed as drug level causing paralysis per gram of cricket after 5 mins; type: functional

SMILES	ED50 [nmol]
NCCCC[C@H](N)C(=O)NCCCNCCCNCCCCNC(=O)[C@H](CC(N)=O)NC(=O)Cc1cc(=O)oc2cc(O)ccc12	1.05
NCCCC[C@H](N)C(=O)NCCCNCCCNCCCCNC(=O)[C@H](CC(N)=O)NC(=O)c1cc2ccc(O)cc2oc1=O	2.59
NCCCC[C@H](N)C(=O)NCCCNCCCNCCCCNC(=O)[C@H](CC(N)=O)NC(=O)Cc1ccc(O)cc1O	0.175
NCCCCNCC(=O)NCCCNCCCNCCCCNC(=O)[C@H](CC(N)=O)NC(=O)Cc1cc(=O)oc2cc(O)ccc12	0.136
NCCCCNCC(=O)NCCCNCCCNCCCCNC(=O)[C@H](CC(N)=O)NC(=O)c1cc2ccc(O)cc2oc1=O	5.69
